Test results from patent US20210177819A1, “METHODS AND COMPOSITIONS FOR MODULATING CALCIUM CHANNELS” (Northwestern University, priority 2005, published 2021).
Entries after “also recorded” stand apart in the source; their conditions may differ.

System: SNc dopaminergic neurons
Assay: Whole cell patch clamp recordings of pacemaking in dopaminergic neurons in brain slices
Assay type: cell-based, mouse

NC1=N[C@H](O)[C@H]2[C@H]3O[C@]4(O)O[C@@H]([C@@H](O)[C@@]2(N1)[C@@H]4O)[C@]3(O)CO [tetrodotoxin]
effect of blockade of TTX sensitive sodium channels on spikes and oscillations: eliminates spikes but not the underlying oscillations that drive pacemaking

COC(=O)C1=C(C)NC(C)=C(C(=O)OC(C)C)C1c1cccc2nonc12 (stereo not drawn) [isradipine, 3,5-pyridinedicarboxylic acid, 4-(4-benzofurazanyl)-1,4-dihydro-2,6-dimethyl-, methyl 1-methylethyl ester]
effect of sustained blockade on pacemaking (altered pacemaking mechanism) (adult SNc dopaminergic neuron, before, during and after application, FIG. 4): altered pacemaking mechanism can be elicited; also recorded: restores pacemaking and dopaminergic neuron cell function through an altered pacemaking mechanism

COCCOC(=O)C1=C(C)NC(C)=C(C(=O)OC(C)C)C1c1cccc([N+](=O)[O-])c1 (stereo not drawn) [nimodipine, isopropyl 2-methoxyethyl 1,4-dihydro-2,6-dimethyl-4-(m-nitrophenyl)-3,5-pyridinedicarboxylate]
effect on autonomous pacemaking of dopaminergic neurons (tissue slice from an adult, FIG. 1): inhibits autonomous pacemaking of dopaminergic neurons
